Data published in PubChem BioAssay AID588529 (Broad Institute, 2011).

tested on: Candida albicans CaCi-2 growth, Alamar Blue fluorescence, 48 h; test: single-agent growth inhibition of Candida albicans, dose response, CaCi-2 isolate, Alamar Blue, cherry-pick (AID 588529)

First: COc1cccc(/C=N/Nc2ncnc3scc(-c4ccccc4)c23)c1O
Second: COc1cccc(N=Nc2ccc3cccnc3c2O)c1
The AC50 of the first is 3.6-fold higher: 5.52 µM for the first, 1.52 µM for the second.

First: CN1CCN(C(c2ccc(C(F)(F)F)cc2)c2ccc3cccnc3c2O)CC1 (centres undefined)
Second: CN1CCN(C(c2ccc(C(F)(F)F)cc2)c2cc(Cl)c3cccnc3c2O)CC1 (centres undefined)
The AC50 of the first is 1.9-fold higher: 5.05 µM for the first, 2.71 µM for the second.

Going from `O=C(N/N=C/c1c(O)ccc2ccccc12)c1cccc(C(F)(F)F)c1` to `C/C(=N\NC(=O)c1cc2ccccc2cc1O)c1ccccn1`, the AC50 rises from 1.45 µM to 5 µM (3.4-fold).

Going from `Oc1c(CN2CCN(c3ccccc3)CC2)cc(Br)c2cccnc12` to `O=[N+]([O-])c1cc(CN2CCN(c3ccccc3)CC2)c(O)c2ncccc12`, the AC50 rises from 2.38 µM to 5.39 µM (2.3-fold).

Compared with `Cc1ccc(C(=O)c2coc3c2C(=O)C(=O)c2ccccc2-3)cc1`, `O=c1ccc(N=Nc2ccccc2)ccc1O` is 2-fold lower in AC50: 9.38 µM for the first, 4.76 µM for the second.

`O=Nc1c(-c2cccc([N+](=O)[O-])c2)nc2ncccn12` and `O=[N+]([O-])c1ccc(O)c(/C=N/Nc2ccc(Cl)nn2)c1` are the same in AC50: 5.11 µM for the first, 5.11 µM for the second.

`Oc1c(C(Nc2nccs2)c2ccc(C(F)(F)F)cc2)ccc2cccnc12` (centres undefined) and `Cc1cc(NC(c2ccc(Cl)cc2)c2ccc3cccnc3c2O)no1` (centres undefined) are within 1.5-fold of each other in AC50: 3.73 µM for the first, 4.71 µM for the second.

Going from `COc1ccc(C)cc1N=Nc1ccc(O)c2ncccc12` to `COc1cccc(N=Nc2ccc(O)c3ncccc23)c1`, the AC50 falls from 1.71 µM to 0.39 µM (4.4-fold).

First: Oc1c(CN2CCN(c3ccc(F)cc3)CC2)cc(Cl)c2cccnc12
Second: Oc1c(C(c2ccc(Cl)cc2)N2CCCC2)cc(Cl)c2cccnc12 (centres undefined)
The AC50 of the first is 2.5-fold higher: 3.73 µM for the first, 1.51 µM for the second.

`CCCCC(=O)NC(c1ccc(Cl)cc1)c1ccc2cccnc2c1O` (centres undefined) and `CCCCC(=O)NC(c1ccc(N(CC)CC)cc1)c1ccc2cccnc2c1O` (centres undefined) are within 1.5-fold of each other in AC50: 5.11 µM for the first, 3.74 µM for the second.

First: O=Cc1ccc(O)c2ncccc12
Second: CCOc1ccc(N=Nc2ccc(O)c3ncccc23)cc1
The AC50 of the first is 2.8-fold higher: 3.85 µM for the first, 1.4 µM for the second.

First: CCN(CC)S(=O)(=O)c1cc(OC)ccc1N=Nc1ccc(O)c2ncccc12
Second: Oc1ccc(N=Nc2ccc3c(c2)OCCO3)c2cccnc12
The AC50 of the first is 3-fold higher: 10.6 µM for the first, 3.55 µM for the second.

Going from `Oc1ccc(N=Nc2ccc3c(c2)OCCO3)c2ncccc12` to `O=C(Oc1c(Cl)cc(Cl)c2cccnc12)c1ccco1`, the AC50 falls from 2.59 µM to 0.812 µM (3.2-fold).

Compared with `CCCCC(=O)NC(c1ccco1)c1cc(Cl)c2cccnc2c1O` (centres undefined), `O=C(Oc1c(Cl)cc(Cl)c2cccnc12)c1cccs1` is 4.2-fold lower in AC50: 6.22 µM for the first, 1.49 µM for the second.

Going from `Oc1c(C(Nc2nc3ccccc3s2)c2ccco2)ccc2cccnc12` (centres undefined) to `O=C(N/N=C/c1cc2c3c(c1O)CCCN3CCC2)c1ccccc1O`, the AC50 falls from 3.26 µM to 1.75 µM (1.9-fold).

Compared with `CCOC(=O)N1C(=O)C2(CCCCC2)N(c2ccc(C)cc2)C1=S`, `CCCCCCC[n+]1ccc(-c2cc[n+](CCCCCCC)cc2)cc1` is 37-fold higher in AC50: 0.102 µM for the first, 3.76 µM for the second.

`C=CCNC(=S)N/N=C(\C)c1ccccn1` and `C(C#CCCCCCCCCC[n+]1ccccc1)#CCCCCCCCCC[n+]1ccccc1` are within 1.5-fold of each other in AC50: 13.8 µM for the first, 16.2 µM for the second.
